The values that follow come from patent US9555038B2, “Heterocycle-substituted tetracyclic compounds and methods of use thereof for the treatment of viral diseases” (Merck Sharp & Dohme Corp., priority 2013, dated 2017).

The test system of assay [1] is HCV replicon 1A. The experiment in a line: Cell-based HCV Replicon Assay A, replicon 1A. The gist of the method:
(§1)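 2000 cells/well; 10 serial dilutions, top concentration 333.3 nM to 1.667 nM; 0.5% DMSO, 5% FBS; 3 days; lysis; multiplex TaqMan RT-PCR (NS5B/Neo plus cyclophilin), RNA from linear Ct standard curves.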
(In general: A replicon is a self-replicating genome or part of one, used to study replication in cells.)

Assay [2] concerns HCV replicon 1AY93H. Description: Cell-based HCV Replicon Assay A, replicon 1AY93H. In a few lines:
as §1

Assay [3] deals with HCV replicon 2B. Description: Cell-based HCV Replicon Assay A, replicon 2B. The gist of the method:
as §1

For assay [4], the system named is HCV replicon 1B. The experiment in a line: Cell-based HCV Replicon Assay B, replicon 1B. As to the method:
In an alternate assay (“Replicon Assay B”), 1000 cells were seeded per well in a 384-well collagen coated black plate from Greiner bio-one (Cat #781946) in 5% FBS. Inhibitors of this invention were added at 24 h post-seeding, and the plates were incubated for 3 days. Cells were subsequently lysed with Qiagen lysis buffer (Cat #1062731) to extract the RNA. HCV replicon RNA level was measured by real-time PCR using the RNA-to-CT kit from Applied Biosystem (Cat #4392656) and genotype-specific primers and probes. The amplicon was located within NS5B. The sequence of the PCR primers are as follows: 5B.2F, ATGGACAGGCGCCCTGA (SEQ. ID NO. 1); 5B.2R, […] (SEQ. ID NO. 2); the probe sequence was FAM-labeled CACGCCATGCGCTGCGG (SEQ. ID NO. 3). To detect genotype 1A the primer 1A F, TGCGGAACCGGTGAGTACA and 1A R, […] were used; the probe sequence was FAM-[…].
The real-time RT-PCR reactions were run on ABI PRISM 7900HT or Viia7 Sequence Detection System using the following program: 48° C. for 30 minutes, 95° C. for 10 minutes, 40 cycles of 95° C. for 15 sec, 60° C. for 1 minutes. The 50% effective concentration (EC50) was the drug concentration necessary to achieve an increase in the cycle threshold (CT) of 1 over the projected baseline CT.
Data was obtained for various compounds of the present invention using the methods described in the Example above, and is presented in the table immediately below. Data for replicons 1A, 1AY93H and 2B were obtained using Replicon Assay A and data for replicons 1AQ30D and 1B were obtained using Replicon Assay B.

Setting [5] is: Hepatitis C virus, read-out: 1A Y93H IC50 (nM), replicon 1AY93H.
Setting [6] is: Hepatitis C virus, read-out: 2B IC50 (nM), replicon 2B.
Setting [7] is: read-out: 1A Y93H IC50, replicon 1AY93H.

For orientation: IC50 means the concentration that gives 50% inhibition.

SMILES strings stand for the structures. Where two headings read alike, the source gives them in different places.

As to `COC(=O)N[C@H](C(=O)N1CCC[C@H]1c1ncc(-c2cc(F)c3c(c2)OC(c2csnn2)n2c-3cc3cc(-c4cnc([C@@H]5CCCN5C(=O)[C@@H](NC(=O)OC)C(C)C)[nH]4)ccc32)[nH]1)C(C)C` (mixture of isomers) [Compound 501], the IC50 in assay [1] (Hepatitis C virus) is 3.9 pM; in assay [2] (setting [5]) it was 0.857 nM; in assay [3] (setting [6]), 1.32 nM; in assay [4] (Hepatitis C virus), 3.6 pM.
Consider `COCc1ncc(C2Oc3cc(-c4cnc([C@@H]5CCCN5C(=O)[C@@H](NC(=O)OC)C(C)C)[nH]4)cc(F)c3-c3cc4cc(-c5cnc([C@@H]6CCCN6C(=O)[C@@H](NC(=O)OC)C(C)C)[nH]5)ccc4n32)s1` (single isomer, unassigned) [Compound 17], for which the IC50 in assay [1] (Hepatitis C virus) is 1.2 pM; in assay [2] (setting [7]), 1.01 nM; in assay [3] (read-out: 2B IC50, replicon 2B), 0.528 nM; in assay [4] (Hepatitis C virus), 2 pM.
On to `COC(=O)N[C@H](C(=O)N1CCC[C@H]1c1ncc(-c2cc(F)c3c(c2)OC(c2cnc(-c4ccc(OC)cc4)s2)n2c-3cc3cc(-c4cnc([C@@H]5CCCN5C(=O)[C@@H](NC(=O)OC)C(C)C)[nH]4)ccc32)[nH]1)C(C)C` (single isomer, unassigned) [Compound 46], for which the IC50 in assay [1] was determined as 1.8 pM; in assay [2] (setting [7]) it was 0.534 nM; in assay [3] (read-out: 2B IC50, replicon 2B), 0.252 nM; in assay [4] it was 1 pM.
Taken in the same sequence, the figures for `CCCc1ncc(C2Oc3cc(-c4cnc([C@@H]5CCCN5C(=O)[C@@H](NC(=O)OC)C(C)C)[nH]4)cc(F)c3-c3cc4cc(-c5cnc([C@@H]6CCCN6C(=O)C(NC(=O)OC)C6CCOC(C)(C)C6)[nH]5)ccc4n32)s1` (single isomer, unassigned) [Compound 60] were 4 pM, 0.4 nM, 0.184 nM and 4 pM.
In the case of `COC(=O)NC(C(=O)N1CCC[C@H]1c1ncc(-c2ccc3c(c2)cc2n3C(c3cnc(C(C)(C)O)s3)Oc3cc(-c4cnc([C@@H]5CCCN5C(=O)[C@@H](NC(=O)OC)C(C)C)[nH]4)cc(F)c3-2)[nH]1)C1C[C@@H](C)O[C@@H](C)C1` (single isomer, unassigned) [Compound 73], the IC50 worked out at 5.7 pM in assay [1] (Hepatitis C virus); 0.586 nM in assay [2] (setting [7]); 0.146 nM in assay [3] (read-out: 2B IC50, replicon 2B); 5 pM in assay [4] (Hepatitis C virus).
With `COC(=O)N[C@H](C(=O)N1CCC[C@H]1c1ncc(-c2cc(F)c3c(c2)OC(c2cnc(-c4ccc(F)cc4F)s2)n2c-3cc3cc(-c4cnc([C@@H]5CCCN5C(=O)[C@@H](NC(=O)OC)C(C)C)[nH]4)ccc32)[nH]1)C(C)C` (single isomer, unassigned) [Compound 98], the IC50 in assay [1] (Hepatitis C virus) stood at 2.7 pM; in assay [2] (setting [7]), 0.01 nM; in assay [3] (read-out: 2B IC50, replicon 2B), 0.003 nM; in assay [4] (Hepatitis C virus), 1.2 pM.
With `COC(=O)NC(C(=O)N1CCC[C@H]1c1ncc(-c2ccc3c(c2)cc2n3C(c3cnc(C4CCCC4)s3)Oc3cc(-c4cnc([C@@H]5CCCN5C(=O)[C@@H](NC(=O)OC)C(C)C)[nH]4)cc(F)c3-2)[nH]1)C1CCOC(C)(C)C1` (single isomer, unassigned) [Compound 111], the IC50 in assay [1] (Hepatitis C virus) was 2.2 pM; in assay [2] (setting [5]) it was 0.005 nM; in assay [3] (setting [6]), 0.003 nM; in assay [4] (Hepatitis C virus) it was 2 pM.
Turning to `CCc1nnc(C2Oc3cc(-c4cnc([C@@H]5CCCN5C(=O)[C@@H](NC(=O)OC)C(C)C)[nH]4)cc(F)c3-c3cc4cc(-c5cnc([C@@H]6CCCN6C(=O)C(NC(=O)OC)C(C)C)[nH]5)ccc4n32)s1` (single isomer, unassigned) [Compound 114], the IC50 in assay [1] is 2.7 pM; in assay [4] (Hepatitis C virus) it was 3 pM.
Take `COC(=O)N[C@H](C(=O)N1CCC[C@H]1c1ncc(-c2cc(C)c3c(c2)OC(c2cnc(C4CCC4)s2)n2c-3cc3cc(-c4cnc([C@@H]5C[C@H]6C[C@H]6N5C(=O)[C@@H](NC(=O)OC)C(C)C)[nH]4)ccc32)[nH]1)C(C)C` (single isomer, unassigned) [Compound 207]: the concentration for half-maximal inhibition (IC50) in assay [1] (Hepatitis C virus) turned out to be 3 pM; in assay [2] (setting [5]), 0.26 nM; in assay [3] (setting [6]), 0.25 nM; in assay [4] (Hepatitis C virus), 5 pM.
As for `COC(=O)NC(C(=O)N1[C@@H]2C[C@@H]2C[C@H]1c1ncc(-c2ccc3c(c2)cc2n3C(c3cnc(C4CC4)s3)Oc3cc(-c4cnc([C@@H]5CCCN5C(=O)[C@@H](NC(=O)OC)C(C)C)[nH]4)cc(C)c3-2)[nH]1)C1C[C@@H](C)O[C@@H](C)C1` (single isomer, unassigned) [Compound 216], the IC50 in assay [1] (Hepatitis C virus) was 2.4 pM; in assay [2] (setting [7]), 0.292 nM; in assay [3] (read-out: 2B IC50, replicon 2B), 0.086 nM; in assay [4] (Hepatitis C virus), 4 pM.
With `COC(=O)N[C@H](C(=O)N1CCC[C@H]1c1ncc(-c2cc(F)c3c(c2)OC(c2cnc(C(C)(C)C)s2)n2c-3cc3cc(-c4cnc([C@@H]5CCCN5C(=O)[C@@H](NC(=O)OC)C(C)C)[nH]4)ccc32)[nH]1)C(C)C` (single isomer, unassigned) [Compound 303], the IC50 in assay [1] is 2.6 pM; in assay [2] (setting [7]), 0.0475 nM; in assay [3] (read-out: 2B IC50, replicon 2B), 0.942 nM; in assay [4], 3 pM.
For the compound `COC(=O)NC(C(=O)N1[C@@H]2C[C@@H]2C[C@H]1c1ncc(-c2ccc3c(c2)cc2n3C(c3cnc(C4CC4)s3)Oc3cc(-c4cnc([C@@H]5CCCN5C(=O)[C@@H](NC(=O)OC)C(C)C)[nH]4)cc(F)c3-2)[nH]1)C1C[C@@H](C)O[C@H](C)C1` (single isomer, unassigned) [Compound 312], the IC50 was 2.5 pM in assay [1], 3.1 pM in assay [1] (Hepatitis C virus), 3 pM in assay [4] and 2 pM in assay [4] (Hepatitis C virus).
In the case of `COC(=O)N[C@H](C(=O)N1CCC[C@H]1c1ncc(-c2cc(F)c3c(c2)OC(c2cnc(C4(C)CCCC4)s2)n2c-3cc3cc(-c4cnc([C@@H]5C[C@H]6C[C@H]6N5C(=O)[C@@H](NC(=O)OC)C(C)C)[nH]4)ccc32)[nH]1)C(C)C` (single isomer, unassigned) [Compound 455], the IC50 in assay [1] is 1.7 pM; in assay [2] (setting [7]), 0.981 nM; in assay [4], 3.4 pM.
Regarding `COC(=O)N[C@H](C(=O)N1CCC[C@H]1c1ncc(-c2cc(F)c3c(c2)OC(c2cnc(C4CC4)s2)n2c-3c(C)c3cc(-c4cnc([C@@H]5CCCN5C(=O)[C@@H](NC(=O)OC)C(C)C)[nH]4)ccc32)[nH]1)C(C)C` (single isomer, unassigned) [Compound 496], the figures for the 50% inhibitory concentration (IC50) in assay [1] and in assay [4] were 6.9 pM and 3.5 pM, respectively.
For `COC(=O)N[C@H](C(=O)N1CCC[C@H]1c1ncc(-c2cc(F)c3c(c2)OC(c2cc(C)ns2)n2c-3cc3cc(-c4cnc([C@@H]5CCCN5C(=O)[C@@H](NC(=O)OC)C(C)C)[nH]4)ccc32)[nH]1)C(C)C` (single isomer, unassigned) [Compound 502], the concentration for half-maximal inhibition (IC50) worked out at 1.6 pM in assay [1] (Hepatitis C virus), 2.31 nM in assay [3] (setting [6]) and 2.5 pM in assay [4] (Hepatitis C virus).
With `COC(=O)N[C@H](C(=O)N1CCC[C@H]1c1ncc(-c2cc(F)c3c(c2)OC(c2sc(C(C)C)nc2C)n2c-3cc3cc(-c4cnc([C@@H]5CCCN5C(=O)[C@@H](NC(=O)OC)C(C)C)[nH]4)ccc32)[nH]1)C(C)C` (single isomer, unassigned) [Compound 516], the values for the IC50 in assay [1], in assay [2] (setting [7]) and in assay [4] were 1.7 pM, 3.22 nM and 2.6 pM, respectively.
On to `COC(=O)N[C@H](C(=O)N1CCC[C@H]1c1ncc(-c2cc(F)c3c(c2)OC(c2cnc(C4CC4)s2)n2c-3cc3cc(-c4cnc([C@@H]5CC6(C)CC6N5C(=O)[C@@H](NC(=O)OC)C(C)C)[nH]4)ccc32)[nH]1)C(C)C` (single isomer, unassigned) [Compound 520], for which the IC50 in assay [1] was 3.3 pM; in assay [2] (replicon 1AY93H, read-out: 1A Y93H IC50), 2.71 nM; in assay [4], 3.7 pM.
For `COC(=O)N[C@H](C(=O)N1CCC[C@H]1c1ncc(-c2cc(F)c3c(c2)OC(c2sc(C4CC4)nc2C2CC2)n2c-3cc3cc(-c4cnc([C@@H]5CCCN5C(=O)[C@@H](NC(=O)OC)C(C)C)[nH]4)ccc32)[nH]1)C(C)C` (single isomer, unassigned) [Compound 525], the IC50 amounted to 4.5 pM in assay [1] (Hepatitis C virus) and 2.2 pM in assay [4] (Hepatitis C virus).
Take `COC(=O)N[C@H](C(=O)N1CCC[C@H]1c1ncc(-c2cc(F)c3c(c2)OC(c2sc(C4CC4)nc2C2CC2)n2c-3cc3cc(-c4cnc([C@@H]5CCCN5C(=O)[C@@H](NC(=O)OC)C(C)C)[nH]4)ccc32)[nH]1)C(C)C` (single isomer, unassigned) [Compound 526]: the IC50 in assay [1] stood at 2.4 pM; in assay [3] (setting [6]), 0.537 nM; in assay [4], 1.1 pM.
`COC(=O)NC(C(=O)N1CCC[C@H]1c1ncc(-c2ccc3c(c2)cc2n3C(c3nc4c(s3)CCC4)Oc3cc(-c4cnc([C@@H]5CCCN5C(=O)[C@@H](NC(=O)OC)C(C)C)[nH]4)cc(F)c3-2)[nH]1)C1CCOC(C)(C)C1` (single isomer, unassigned) [Compound 536]: the half-maximal inhibitory concentration (IC50) was found to be 2.3 pM in assay [1]; 0.029 nM in assay [3] (replicon 2B, read-out: 2B IC50); 2.7 pM in assay [4].
